Laboratory results taken from patent US20110262490A1, “POLYMER-AGENT CONJUGATES, PARTICLES, COMPOSITIONS, AND RELATED METHODS OF USE” (priority 2009, published 2011).
Several values for one entry are separate records, joined by “and”; a condition that tells them apart may be missing. Identical values can stand only once. Like-named read-outs stand apart in the source and are kept apart here.

Experiments:
B16.F10 tumor [1] = assay: Efficacy and tolerability in B16.F10 murine melanoma model (Example 43); assay type: in vivo, mouse
Method: Refer to table for detailed description of formulations.
Tumor volume was calculated with the following equation: (width×width×length)/2 mm^3.

HCT-116 tumor = assay: In vivo efficacy in HCT-116 colon xenograft model (Example 44); design: species or system mouse; conditions: 30 mg/kg IV weekly×2
Method: HCT-116 cells were grown in culture to confluency in McCoy's 5a medium containing 10% FBS and 1% penicillin/streptomycin and then resuspended in McCoy's 5a (passage 4). This suspension of HCT-116 cells (density=3.7×10^6 cells/mL) was implanted subcutaneously above the right hind leg of male CD-1 nude mice on day 1.

SK-OV-3 tumor = assay: In vivo efficacy in SK-OV-3 ovarian human xenograft model (Example 45); design: species or system mouse
Method: SK-OV-3 cells were grown in culture to confluency in RPMI medium containing 10% FBS and 1% penicillin/streptomycin and then resuspended in RPMI (passage 4) for implantation into mice. This suspension of SK-OV-3 cells (density=30×10^6 cells/mL) was implanted into the mammary gland of female CD-1 nude mice on Day 1. […]

MDA-MB-435 tumor [2] = assay: In vivo efficacy in MDA-MB-435 melanoma human xenograft model (Example 46); design: species or system mouse
Method: MDA-MB-435 cells were grown in culture to confluency in RPMI medium containing 10% FBS and 1% penicillin/streptomycin and then resuspended in RPMI (passage 4) for implantation into mice. A volume of 0.1 mL containing 4.0×10^6 cells MDA-MB-435 cells were implanted into the mammary gland of female CD-1 nude mice on Day 1.

[3] = Tolerability in normal male C57BL/6 non-tumor-bearing mice (Example 47); assay type: in vivo, mouse; conditions: for Ataxia: n=5
Method: Treatments were administered intravenously on a q7dx2 schedule, i.e., two treatments seven days apart (the first treatment was on Day one). The study ended on Day 14, six days after the 2nd treatment. Blood was collected for complete blood count (CBC) and serum chemistry. Leg muscles were collected so that nerve degeneration could be assessed from the sciatic nerve.

MDA-MB-435 tumor [4] = assay: MDA-MB-435 breast xenograft model, delayed treatment (Example 93); assay type: in vivo, mouse
From the text: See, for example, FIG. 7.

B16.F10 tumor [5] = assay: Efficacy and tolerability in mouse melanoma model B16.F10 (Example 58)
Method: B16.F10 cells were grown in culture to 85-90% confluency in MEM-alpha medium supplemented with 10% fetal bovine serum (FBS) and 1% penicillin/streptomycin. Cells were removed from the culture flask using 0.05% trypsin (passage=4), re-suspended in PBS (density=10×10^6 cells/mL) and were implanted subcutaneously (1×10^6 cells in 100 μL MEM-alpha medium/mouse) into the right flank of male C57BL/6 mice on day 1.
Body weight and tumor volume were measured three times a week. In addition, animals were also monitored for any morbidity and adverse effects three times a week.
Tumor volume was calculated with (width×width×length)/2 mm^3 formula. Efficacy was determined by tumor growth inhibition (TGI), tumor growth delay (TGD) and survival. Tumor growth inhibition (TGI) is represented as % and calculated as (1−(treated tumor volume/control tumor volume))×100 when the control group mean tumor volume reached ≧3000 mm^3. Tumor growth delay (TGD) is calculated by subtracting the day when the vehicle treated group reached the maximum tumor size 3000 mm^3 from the day when the treatment group tumor size reached 3000 mm^3. The criterion at which a mouse was removed from the study was tumor volume ≧3000 mm^3.

H1299 tumor = assay: Efficacy and tolerability in non-small cell lung carcinoma model H1299 (Example 60); conditions: for Tumor growth inhibition (% TGI): 30 mg/kg IV 1/wk×2, 30 mg/kg
Method: H1299 cells were grown in culture to 85-90% confluency in RPMI medium supplemented with 10% fetal bovine serum (FBS), 1% glutamine and 1% penicillin/streptomycin. Cells were removed from the culture flask using 0.05% trypsin (passage=4), re-suspended in RPMI medium (density=50×10^6 cells/mL) and were implanted subcutaneously (5×10^6 cells in 100 μL RPMI medium/mouse) into the mammary fat pad area of male nu/nu mice on day 1.
The treatments were administered IV into the tail vein at a dose volume of 10 and 20 mL/kg for 30 and 60 mg/kg respectively, beginning on post-implantation day 30 when the mean tumor volume was ca. 170 mm^3 (small tumor group), and on day 37 when the mean tumor volume was ca. 440 mm^3 (large tumor group). Body weight and tumor volume were measured for three times a week during the dosing period and twice a week thereafter. In addition, animals were also monitored for any morbidity and adverse effects for three times a week during the dosing period and twice a week thereafter.
Tumor volume was calculated with (width×width×length)/2 mm^3 formula. Efficacy was determined by tumor growth inhibition (TGI), tumor growth delay (TGD) and survival. Tumor growth inhibition (TGI) is represented as % and calculated as (1−(treated tumor volume/control tumor volume))×100 when the control group mean tumor volume reached ≧1000 mm^3 Tumor growth delay (TGD) is calculated by subtracting the day when the vehicle treated group reached the maximum tumor size 1000 mm^3 from the day when the treatment group tumor size reached 1000 mm^3.

[6] = 15 mg/kg IV q3dq4dx3, listed as Docetaxel
[7] = 15 mg/kg IV three times, once every week
[8] = 30 mg/kg IV 1/biwk×3, listed as free docetaxel
[9] = 30 mg/kg IV 1/wk×3, listed as free docetaxel
[10] = large tumor group, 30 mg/kg 1/wk×2
[11] = large tumor group, 60 mg/kg 1/wk×2
[12] = small tumor group, 30 mg/kg 1/wk×2
[13] = small tumor group, 60 mg/kg 1/wk×2

Method for ADR-RES tumor: ADR-RES cells were grown in culture to 85-90% confluency in RPMI medium supplemented with 10% fetal bovine serum (FBS), 1% glutamine and 1% penicillin/streptomycin.
The treatments were administered IV into the tail vein at a dose volume of 10 and 20 mL/kg for 30 and 60 mg/kg respectively, beginning on post-implantation day 47, when the mean tumor volume was ca. 150 mm^3. Body weight and tumor volume were measured for three times a week during the dosing period and twice a week thereafter. In addition, animals were also monitored for any morbidity and adverse effects for three times a week during the dosing period and twice a week thereafter.
Tumor volume was calculated with (width×width×length)/2 mm^3 formula. Efficacy was determined by tumor growth inhibition (TGI), tumor growth delay (TGD) and survival. Tumor growth inhibition (TGI) is represented as % and calculated as (1−(treated tumor volume/control tumor volume))×100 when the control group mean tumor volume reached ≧1000 mm^3. Tumor growth delay (TGD) is calculated by subtracting the day when the vehicle treated group reached the maximum tumor size 1000 mm^3 from the day when the treatment group tumor size reached 1000 mm^3.

Structure (SMILES): CC(=O)O[C@@]12CO[C@@H]1C[C@H](O)[C@@]1(C)C(=O)[C@H](O)C3=C(C)[C@@H](OC(=O)[C@H](O)[C@@H](NC(=O)OC(C)(C)C)c4ccccc4)C[C@@](O)([C@@H](OC(=O)c4ccccc4)[C@H]21)C3(C)C [Free docetaxel, docetaxel]
- Tumor growth inhibition (TGI) (B16.F10 tumor [1]; 15 mg/kg IV q3dq4dx3): 90%
- Maximum body weight loss (B16.F10 tumor [1]; [6]): 11% and 12%
- Tumor growth delay (TGD) (B16.F10 tumor [1]; [6]): 11 days and 12 days
- Maximum body weight loss (B16.F10 tumor [1]; 15 mg/kg IV q4dq3dx3): 11%
- Tumor growth delay (TGD) (B16.F10 tumor [1]; 15 mg/kg IV q4dq3dx3): 11 days
- Tumor growth inhibition (TGI) (B16.F10 tumor [1]; 15 mg/kg IV q4dq3dx3): 90%
- Maximum body weight loss (B16.F10 tumor [1]; [7]): 11%
- Tumor growth delay (TGD) (B16.F10 tumor [1]; [7]): 11 days
- Tumor growth inhibition (TGI) (B16.F10 tumor [1]; [7]): approximately 90%
- Maximum body weight loss (B16.F10 tumor [1]; 30 mg/kg IV q7dx3): 11%
- Tumor growth delay (TGD) (B16.F10 tumor [1]; 30 mg/kg IV q7dx3): 17 days
- Tumor growth inhibition (TGI) (B16.F10 tumor [1]; 30 mg/kg IV q7dx3): 90%
- Day tumor volume end point (3000 mm^3) reached (B16.F10 tumor [1]; 30 mg/kg q7dx3): 37 days
- Tumor growth delay (TGD) (B16.F10 tumor [1]; 60 mg/kg IV q14dx2): 11 days
- Tumor growth inhibition (TGI) (B16.F10 tumor [1]; 60 mg/kg IV q14dx2): 71%
- Maximum body weight loss (B16.F10 tumor [1]; 60 mg/kg IV q14dx2, listed as Docetaxel): 0%
- Maximum body weight loss (B16.F10 tumor [1]; 60 mg/kg IV q14dx2, listed as docetaxel): did not show any body weight loss
- Day tumor volume end point (3000 mm^3) reached (B16.F10 tumor [1]; 60 mg/kg q14dx2): 29 days
- Maximum body weight loss (HCT-116 tumor): 14%
- Tumor growth inhibition (TGI) (HCT-116 tumor): 88%
- TGD (HCT-116 tumor; end point 1000 mm^3): 22 days
- Tumor growth delay (TGD) (SK-OV-3 tumor; 15 mg/kg IV weekly×2): 18 days
- Ataxia (SK-OV-3 tumor; 30 mg/kg IV weekly×2): did not cause ataxia
- Maximum body weight loss (SK-OV-3 tumor; 30 mg/kg IV weekly×2): 13%
- Tumor growth delay (TGD) (SK-OV-3 tumor; 30 mg/kg IV weekly×2): 42 days
- Body weight loss (SK-OV-3 tumor; 60 mg/kg IV weekly×2): greater than 20%
- Maximum body weight loss (MDA-MB-435 tumor [2]; 15 mg/kg IV Days 21 and 28): 10%
- Maximum body weight loss (MDA-MB-435 tumor [2]; 30 mg/kg IV Days 21 and 28): 14%
- Ataxia (MDA-MB-435 tumor [2]; 30 mg/kg IV weekly×2): did not cause ataxia
- Body weight loss (MDA-MB-435 tumor [2]; 60 mg/kg IV Days 21 and 28 (mean tumor 150 mm^3)): greater than 20%
- Ataxia (MDA-MB-435 tumor [2]; 60 mg/kg IV weekly×2, listed as docetaxel): developed ataxia
- Ataxia (MDA-MB-435 tumor [2]; 60 mg/kg IV weekly×2, listed as free docetaxel): Ataxia was observed four days after the second treatment
- Body weight above initial on Day 14 ([3]; 30 mg/kg IV q7dx2): 3%
- Mice developing ataxia ([3]; 30 mg/kg q7dx2): no mice
- Lymphocyte mean ([3]; 30 mg/kg q7dx2, Day 14): 4350 cells/μL
- Neutrophil mean ([3]; 30 mg/kg q7dx2, Day 14): 556 cells/μL
- WBC # mean ([3]; 30 mg/kg q7dx2, Day 14): 5.1 ×1000 cells/μL
- Ataxia ([3]; 30 mg/kg q7dx2): 0%
- Body weight above initial on Day 14 ([3]; 45 mg/kg IV q7dx2): 2%
- Lymphocyte mean ([3]; 45 mg/kg q7dx2, Day 14): 6780 cells/μL
- Mice developing ataxia ([3]; 45 mg/kg q7dx2, Day 14): One mouse
- Neutrophil mean ([3]; 45 mg/kg q7dx2, Day 14): 752 cells/μL
- WBC # mean ([3]; 45 mg/kg q7dx2, Day 14): 7.8 ×1000 cells/μL
- Ataxia ([3]; 45 mg/kg q7dx2): 20%
- Weight loss after second treatment, by end of study ([3]; 60 mg/kg IV q7dx2, Day 14): 19%
- Mice developing ataxia ([3]; 60 mg/kg q7dx2): Five out of five mice
- Lymphocyte mean ([3]; 60 mg/kg q7dx2, Day 14): 5590 cells/μL
- Neutrophil mean ([3]; 60 mg/kg q7dx2, Day 14): 470 cells/μL
- WBC # mean ([3]; 60 mg/kg q7dx2, Day 14): 6.2 ×1000 cells/μL
- Ataxia ([3]; 60 mg/kg q7dx2): 100%
- Effect on serum chemistry parameters ([3]; q7dx2): did not affect any serum chemistry parameter at doses up to 60 mg/kg
- Effect on tumors allowed to grow to 500 mm^3 (MDA-MB-435 tumor [4]): unable to suppress tumor growth over this time period
- Day mean tumor volume endpoint (≧1000 mm^3) reached (ADR-RES tumor; 30 mg/kg IV 1/biwk×3): 99 days
- Day of 50% survival (ADR-RES tumor; 30 mg/kg IV 1/biwk×3): 102 days
- Hind limb paralysis (ADR-RES tumor; 30 mg/kg IV 1/biwk×3): did not cause any significant body weight loss (<10%) or hind limb paralysis
- Increase in TGD (ADR-RES tumor; 30 mg/kg IV 1/biwk×3): 0%
- Maximum body weight loss (ADR-RES tumor; 30 mg/kg IV 1/biwk×3): 9%
- Tumor growth delay (TGD) (ADR-RES tumor; 30 mg/kg IV 1/biwk×3): 0 days
- Tumor growth inhibition (% TGI) (ADR-RES tumor; 30 mg/kg IV 1/biwk×3): 0%
- Tumor growth delay (TGD) (ADR-RES tumor; [8]): no TGD
- Tumor growth inhibition (% TGI) (ADR-RES tumor; [8]): 0%
- Day mean tumor volume endpoint (≧1000 mm^3) reached (ADR-RES tumor; 30 mg/kg IV 1/wk×2): 109 days
- Day of 50% survival (ADR-RES tumor; 30 mg/kg IV 1/wk×2): 106 days
- Hind limb paralysis (ADR-RES tumor; 30 mg/kg IV 1/wk×2): did not cause any significant body weight loss (<10%) or hind limb paralysis
- Increase in TGD (ADR-RES tumor; 30 mg/kg IV 1/wk×2): 13%
- Maximum body weight loss (ADR-RES tumor; 30 mg/kg IV 1/wk×2): 6%
- Tumor growth delay (TGD) (ADR-RES tumor; 30 mg/kg IV 1/wk×2): 7 days
- Tumor growth inhibition (% TGI) (ADR-RES tumor; 30 mg/kg IV 1/wk×2): 23%
- Tumor growth inhibition (% TGI) (ADR-RES tumor; 30 mg/kg IV 1/wk×2, listed as free docetaxel): 23%
- Hind limb paralysis (ADR-RES tumor; 60 mg/kg IV 1/biwk×3): severe hind limb paralysis
- Maximum body weight loss (ADR-RES tumor; 60 mg/kg IV 1/biwk×3): 21%
- Day mean tumor volume endpoint (≧1000 mm^3) reached (ADR-RES tumor; 60 mg/kg IV 1/wk×2): 106 days
- Day of 50% survival (ADR-RES tumor; 60 mg/kg IV 1/wk×2): 106 days
- Hind limb paralysis (ADR-RES tumor; 60 mg/kg IV 1/wk×2): hind limb paralysis after the 2nd injection followed by recovery
- Increase in TGD (ADR-RES tumor; 60 mg/kg IV 1/wk×2): 7%
- Maximum body weight loss (ADR-RES tumor; 60 mg/kg IV 1/wk×2): 23%
- Tumor growth delay (TGD) (ADR-RES tumor; 60 mg/kg IV 1/wk×2): 4 days
- Tumor growth inhibition (% TGI) (ADR-RES tumor; 60 mg/kg IV 1/wk×2): 14%
- Tumor growth inhibition (% TGI) (ADR-RES tumor; 60 mg/kg IV 1/wk×2, listed as free docetaxel): 14%
- Day of 0% survival (B16.F10 tumor [5]; 30 mg/kg 1/wk×3): 45 days
- Day of 50% survival (B16.F10 tumor [5]; 30 mg/kg 1/wk×3): 40 days
- Day mean tumor volume endpoint (≧3000 mm^3) reached (B16.F10 tumor [5]; 30 mg/kg IV 1/wk×3): 43 days
- Increase in TGD (B16.F10 tumor [5]; 30 mg/kg IV 1/wk×3): 115%
- Maximum body weight loss (B16.F10 tumor [5]; 30 mg/kg IV 1/wk×3): 12%
- Tumor growth delay (TGD) (B16.F10 tumor [5]; 30 mg/kg IV 1/wk×3): 23 days
- Tumor growth inhibition (% TGI) (B16.F10 tumor [5]; 30 mg/kg IV 1/wk×3): 92%
- Maximum body weight loss (B16.F10 tumor [5]; [9]): did not cause any significant body weight loss
- Tumor growth inhibition (% TGI) (B16.F10 tumor [5]; [9]): 92%
- Day mean tumor volume endpoint (≧1000 mm^3) reached (H1299 tumor; [10]): 63 days
- Day of 0% survival (H1299 tumor; [10]): 80 days
- Day of 50% survival (H1299 tumor; [10]): 61 days
- Hind limb paralysis (H1299 tumor; [10]): did not cause any significant body weight loss or hind limb paralysis
- Increase in TGD (H1299 tumor; [10]): 43%
- Maximum body weight loss (H1299 tumor; [10]): 19%
- Tumor growth delay (TGD) (H1299 tumor; [10]): 19 days
- Tumor shrinkage (H1299 tumor; [10]): no tumor shrinkage
- Tumor growth inhibition (% TGI) (H1299 tumor; large tumor group): 49%
- Tumor growth inhibition (% TGI) (H1299 tumor; large tumor group, listed as free docetaxel): 49%
- Hind limb paralysis (H1299 tumor; [11]): severe hind limb paralysis
- Maximum body weight loss (H1299 tumor; [11]): significant body weight loss
- Day mean tumor volume endpoint (≧1000 mm^3) reached (H1299 tumor; [12]): 61 days
- Day of 0% survival (H1299 tumor; [12]): 68 days
- Day of 50% survival (H1299 tumor; [12]): 56 days
- Hind limb paralysis (H1299 tumor; [12]): did not cause any significant body weight loss or hind limb paralysis
- Increase in TGD (H1299 tumor; [12]): 39%
- Maximum body weight loss (H1299 tumor; [12]): 18%
- Tumor growth delay (TGD) (H1299 tumor; [12]): 17 days
- Tumor growth inhibition (% TGI) (H1299 tumor; small tumor group): 64%
- Tumor growth inhibition (% TGI) (H1299 tumor; small tumor group, listed as free docetaxel): 64%
- Hind limb paralysis (H1299 tumor; [13]): severe hind limb paralysis
- Maximum body weight loss (H1299 tumor; [13]): significant body weight loss
